Patent publication US12599672B2, “KRAS proteolysis targeting chimeras” (PAQ Therapeutics Inc., priority 2023, dated 2026)

Columns and labels:
KRAS G12V = biological target: T1, KRAS G12V (Homo sapiens, UniProt P01116, G12V); assay: KRAS G12V HiBit assay; type: cell-based; conditions: SW620-KRAS (G12V)-HiBit-KI cells, compound treatment for 24 hours, class symbols
T1 construct: SW620-KRAS (G12V)-HiBit-KI cell (Pharmaron); host or cells: SW620-KRAS (G12V)-HiBit-KI cells (HiBiT knock-in at the endogenous KRAS locus)
T1 sequence (P01116 1-188 isoform P01116-2 G12V): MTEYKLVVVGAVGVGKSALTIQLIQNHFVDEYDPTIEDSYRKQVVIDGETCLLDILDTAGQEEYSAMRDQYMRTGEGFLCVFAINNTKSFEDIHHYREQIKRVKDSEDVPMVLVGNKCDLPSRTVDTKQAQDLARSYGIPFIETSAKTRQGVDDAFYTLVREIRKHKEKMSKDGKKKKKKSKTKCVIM
Outline: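 Luminescence from lytic Nano-Glo HiBiT detection with LgBiT read KRAS G12V levels after 24 h compound exposure. Dilutions were 10-point, 3-fold, from a 0.3 mM DMSO stock. Degradation activity was normalised to cells given 0.1% DMSO alone.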

KRAS G12D = biological target: T2, KRAS G12D (Homo sapiens, UniProt P01116, G12D); assay: KRAS G12D HiBit assay; type: cell-based; conditions: AsPc-1-KRAS (G12D)-HiBit-KI cell, compound treatment for 24 hours; for DC50: absolute DC50
T2 construct: AsPc-1-KRAS (G12D)-HiBit-KI cell (Pharmaron); host or cells: AsPc-1-KRAS (G12D)-HiBit-KI cells (HiBiT knock-in at the endogenous KRAS locus)
T2 sequence (P01116 1-188 isoform P01116-2 G12D): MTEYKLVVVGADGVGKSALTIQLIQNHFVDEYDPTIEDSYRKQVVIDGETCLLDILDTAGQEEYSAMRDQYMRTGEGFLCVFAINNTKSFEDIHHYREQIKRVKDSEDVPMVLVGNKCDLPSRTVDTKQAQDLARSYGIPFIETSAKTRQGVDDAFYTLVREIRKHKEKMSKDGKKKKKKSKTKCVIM
Outline: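 HiBiT luminescence, detected by adding lytic buffer, substrate and LgBiT protein, served as the KRAS G12D read-out. Compounds, serially diluted 3-fold over 10 points from 0.3 mM DMSO stock, were on cells for 24 h; percent inhibition normalized to cells given 0.1% DMSO only.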

[1] = numeric bounds given in place of class symbols

DC50 (KRAS G12V) | DC50 (KRAS G12D; class symbols) | DC50 (KRAS G12D; [1]) | Dmax (KRAS G12D; class symbols) | SMILES
> 100 nM |  | > 100 nM |  | C#Cc1c(F)ccc2cccc(-c3ncc4c(N5CCC[C@@](C)(O)C5)nc(OC[C@@]56CCCN5[C@H](COC(=O)N5CCC(C7CCN(c8ccc9c(c8)n(C)c(=O)n9C8CCC(=O)NC8=O)CC7)CC5)CC6)nc4c3F)c12 (some centres unmarked) [Compound 152]
> 100 nM |  | > 100 nM |  | C#Cc1c(F)ccc2cccc(-c3ncc4c(N5CCC[C@@](C)(O)C5)nc(OC[C@@]56CCCN5[C@H](COC(=O)N5CCC(COC7CN(c8ccc9c(c8)n(C)c(=O)n9C8CCC(=O)NC8=O)C7)CC5)CC6)nc4c3F)c12 (some centres unmarked) [Compound 153]
> 100 nM | > 300 nM |  | 15 to 50% | C[C@H]1CN(CC(=O)N2CCC(CN3CCC(c4ccc5c(c4)n(C)c(=O)n5C4CCC(=O)NC4=O)CC3)CC2)CCCN1c1nccc(-c2noc([C@@]3(C)CCCc4sc(N)c(C#N)c43)n2)n1 (stereo partly drawn) [Compound 210, (4S)-2-amino-4-(3-{2-[(2S)-4-{2-[4-({4-[1-(2,6-dioxopiperidin-3-yl)-3-methyl-2-oxo-1,3-benzodiazol-5-yl]piperidin-1-yl}methyl)piperidin-1-yl]-2-oxoethyl}-2-methyl-1,4-diazepan-1-yl]pyrimidin-4-yl}-1,2,4-oxadiazol-5-yl)-4-methyl-6,7-dihydro-5H-1-benzothiophene-3-carbonitrile]
> 100 nM | > 300 nM |  | < 15% | C[C@H]1CN(CC(=O)N2CCC(CN3CCC(c4ccc5c(c4)n(C)c(=O)n5C4CCC(=O)NC4=O)CC3)CC2)CCCN1c1nccc(-c2noc([C@]3(C)CCCc4sc(N)c(C#N)c43)n2)n1 (stereo partly drawn) [Compound 211, (4R)-2-amino-4-(3-{2-[(2S)-4-{2-[4-({4-[1-(2,6-dioxopiperidin-3-yl)-3-methyl-2-oxo-1,3-benzodiazol-5-yl]piperidin-1-yl}methyl)piperidin-1-yl]-2-oxoethyl}-2-methyl-1,4-diazepan-1-yl]pyrimidin-4-yl}-1,2,4-oxadiazol-5-yl)-4-methyl-6,7-dihydro-5H-1-benzothiophene-3-carbonitrile]
> 100 nM |  | > 231 nM |  | Cn1c(=O)n(C2CCC(=O)NC2=O)c2cc(C3CCN(CC4CCN(C(=O)CN5CCN(c6nccc(-c7noc([C@@]8(C)CCCc9sc(N)c(C#N)c98)n7)n6)CC5)CC4)CC3)ccc21 (some centres unmarked) [Compound 223]
> 100 nM | > 300 nM |  |  | Cn1c(=O)n(C2CCC(=O)NC2=O)c2ccc(C3CCN(CC4CCN(C(=O)CN5CCN(c6nccc(-c7noc([C@@]8(C)CCCc9sc(N)c(C#N)c98)n7)n6)CC5)CC4)CC3)cc21 (some centres unmarked) [Compound 224]
10 to 100 nM |  | > 100 nM |  | CCc1c(F)ccc2cc(O)cc(-c3ncc4c(N5CCC[C@@](C)(O)C5)nc(OC[C@]56CCCN5[C@H](COC(=O)N5CCC(Oc7cccc8c7n(C)c(=O)n8C7CCC(=O)NC7=O)CC5)CC6)nc4c3F)c12 (stereo partly drawn) [Compound 306, ((3S,7aR)-7a-(((7-(8-ethyl-7-fluoro-3-hydroxynaphthalen-1-yl)-8-fluoro-4-((R)-3-hydroxy-3-methylpiperidin-1-yl)pyrido[4,3-d]pyrimidin-2-yl)oxy)methyl)hexahydro-1H-pyrrolizin-3-yl)methyl 4-((1-(2,6-dioxopiperidin-3-yl)-3-methyl-2-oxo-2,3-dihydro-1H-benzo[d]imidazol-4-yl)oxy)piperidine-1-carboxylate]
> 100 nM |  | > 100 nM |  | CCc1c(F)ccc2cc(O)cc(-c3ncc4c(N5CCC[C@@](C)(O)C5)nc(OC[C@@]56CCCN5[C@@H](COC(=O)N5CCC(Oc7cccc8c7n(C)c(=O)n8C7CCC(=O)NC7=O)CC5)CC6)nc4c3F)c12 (stereo partly drawn) [Compound 313, ((3R,7aS)-7a-(((7-(8-ethyl-7-fluoro-3-hydroxynaphthalen-1-yl)-8-fluoro-4-((R)-3-hydroxy-3-methylpiperidin-1-yl)pyrido[4,3-d]pyrimidin-2-yl)oxy)methyl)hexahydro-1H-pyrrolizin-3-yl)methyl 4-((1-(2,6-dioxopiperidin-3-yl)-3-methyl-2-oxo-2,3-dihydro-1H-benzo[d]imidazol-4-yl)oxy)piperidine-1-carboxylate]
> 100 nM |  | > 100 nM |  | CCc1c(F)ccc2cc(O)cc(-c3ccc4c(N5CCC[C@@](C)(O)C5)nc(OC[C@]56CCCN5[C@H](COC(=O)N5CCC(CN7CCC(c8ccc9c(c8)n(C)c(=O)n9C8CCC(=O)NC8=O)CC7)CC5)CC6)nc4c3F)c12 (stereo partly drawn) [Compound 318, ((3S,7aR)-7a-(((7-(8-ethyl-7-fluoro-3-hydroxynaphthalen-1-yl)-8-fluoro-4-((R)-3-hydroxy-3-methylpiperidin-1-yl)quinazolin-2-yl)oxy)methyl)hexahydro-1H-pyrrolizin-3-yl)methyl 4-((4-(1-(2,6-dioxopiperidin-3-yl)-3-methyl-2-oxo-2,3-dihydro-1H-benzo[d]imidazol-5-yl)piperidin-1-yl)methyl)piperidine-1-carboxylate]

The remaining lines, values behind:

SMILES | DC50 (KRAS G12V) | DC50 (KRAS G12D; class symbols) | DC50 (KRAS G12D; [1]) | Dmax (KRAS G12D; class symbols)
CCc1c(F)ccc2cc(O)cc(-c3ccc4c(N5CCC[C@@](C)(O)C5)nc(OC[C@@]56CCCN5[C@H](COC(=O)N5CCC(CN7CCC(c8ccc9c(c8)n(C)c(=O)n9C8CCC(=O)NC8=O)CC7)CC5)CC6)nc4c3F)c12 (some centres unmarked) [Compound 146] | < 10 nM | < 100 nM |  | 
C#Cc1c(F)ccc2cccc(-c3ncc4c(N5CCC[C@@](C)(O)C5)nc(OC[C@@]56CCCN5[C@H](COC(=O)N5CCC(N7CCC(c8cccc9c8n(C)c(=O)n9C8CCC(=O)NC8=O)CC7)CC5)CC6)nc4c3F)c12 (some centres unmarked) [Compound 147] | > 100 nM |  | > 100 nM | 
C[C@H]1CN(CCOCCOc2ccc3c(c2)n(C)c(=O)n3C2CCC(=O)NC2=O)CCCN1c1nccc(-c2noc([C@@]3(C)CCCc4sc(N)c(C#N)c43)n2)n1 (stereo partly drawn) [Compound 209, (4S)-2-amino-4-(3-(2-((2S)-4-(2-(2-((1-(2,6-dioxopiperidin-3-yl)-3-methyl-2-oxo-2,3-dihydro-1H-benzo[d]imidazol-5-yl)oxy)ethoxy)ethyl)-2-methyl-1,4-diazepan-1-yl)pyrimidin-4-yl)-1,2,4-oxadiazol-5-yl)-4-methyl-4,5,6,7-tetrahydrobenzo[b]thiophene-3-carbonitrile] | > 100 nM | > 300 nM |  | 15 to 50%
Cn1c(=O)n(C2CCC(=O)NC2=O)c2cccc(C3CCN(CC4CCN(C(=O)CN5CCN(c6nccc(-c7noc([C@@]8(C)CCCc9sc(N)c(C#N)c98)n7)n6)CC5)CC4)CC3)c21 (some centres unmarked) [Compound 222] | > 100 nM | > 300 nM |  | 
CCc1c(F)ccc2cc(O)cc(-c3ccc4c(N5CCC[C@@](C)(O)C5)nc(OCC56CCCN5C(COC(=O)N5CCC(CN7CCC(c8ccc9c(c8)n(C)c(=O)n9C8CCC(=O)NC8=O)CC7)CC5)CC6)nc4c3F)c12 (stereo partly drawn) [Compound 304, (7a-(((7-(8-ethyl-7-fluoro-3-hydroxynaphthalen-1-yl)-8-fluoro-4-((R)-3-hydroxy-3-methylpiperidin-1-yl)quinazolin-2-yl)oxy)methyl)hexahydro-1H-pyrrolizin-3-yl)methyl 4-((4-(1-(2,6-dioxopiperidin-3-yl)-3-methyl-2-oxo-2,3-dihydro-1H-benzo[d]imidazol-5-yl)piperidin-1-yl)methyl)piperidine-1-carboxylate] | > 100 nM |  | > 100 nM | 
CCc1c(F)ccc2cc(O)cc(-c3ccc4c(N5CCC[C@@](C)(O)C5)nc(OC[C@@]56CCCN5[C@@H](COC(=O)N5CCC(CN7CCC(c8ccc9c(c8)n(C)c(=O)n9C8CCC(=O)NC8=O)CC7)CC5)CC6)nc4c3F)c12 (stereo partly drawn) [Compound 319, ((3R,7aS)-7a-(((7-(8-ethyl-7-fluoro-3-hydroxynaphthalen-1-yl)-8-fluoro-4-((R)-3-hydroxy-3-methylpiperidin-1-yl)quinazolin-2-yl)oxy)methyl)hexahydro-1H-pyrrolizin-3-yl)methyl 4-((4-(1-(2,6-dioxopiperidin-3-yl)-3-methyl-2-oxo-2,3-dihydro-1H-benzo[d]imidazol-5-yl)piperidin-1-yl)methyl)piperidine-1-carboxylate] | > 100 nM |  | > 100 nM | 
Cn1c(=O)n(C2CCC(=O)NC2=O)c2ccc(C3CCN(C4CC5(CCN(C(=O)OC[C@@H]6CC[C@]7(COc8nc(N9CCC[C@@](C)(O)C9)c9cnc(-c%10cc(O)cc%11cccc(Cl)c%10%11)c(F)c9n8)CCCN67)CC5)C4)CC3)cc21 (stereo partly drawn) [Compound 338, ((3S,7aS)-7a-(((7-(8-chloro-3-hydroxynaphthalen-1-yl)-8-fluoro-4-((R)-3-hydroxy-3-methylpiperidin-1-yl)pyrido[4,3-d]pyrimidin-2-yl)oxy)methyl)hexahydro-1H-pyrrolizin-3-yl)methyl 2-(4-(1-(2,6-dioxopiperidin-3-yl)-3-methyl-2-oxo-2,3-dihydro-1H-benzo[d]imidazol-5-yl)piperidin-1-yl)-7-azaspiro[3.5]nonane-7-carboxylate] | < 10 nM | < 100 nM |  | 
